Laboratory results published in US12709734B2, “Human polarised three-dimensional cellular aggregates” (CAMBRIDGE ENTERPRISE LIMITED, priority 2018, dated 2026).
“Also recorded” adds a separate entry of the source.

What was measured:
[1] = test system: RUES2-GLR human gastruloids; experiment: Human gastruloid formation: elongation and germ layer reporter patterning after pre-treatment; assay type: cell-based; conditions: for elongation / BRA expression of gastruloids: 24 h pre-treatment of RUES2-GLR cells in Nutristem with the named factor (Wnt3a 100 ng/ml or BMP4 50 ng/ml instead of Chiron); for SOX2 expression domain / SOX17 expression: Chiron + 10 μM SB431542 24 h pre-treatment vs Chiron only, RUES2-GLR reporter
Description: (§1) Before aggregation, hESCs cultured in 6-well plates were typically pretreated with 3-3.5 μM CHIR99021 (Chiron) in Nutristem for 24 h, unless otherwise stated.
For signal modulation experiments, RUES2-GLR cells were pre-treated for 1 day in Nutristem supplemented with 100 ng/ml recombinant human Wnt3a (5036-WN-010) or 50 ng/ml BMP4 (314-BP), and aggregated in E6 and ROCK inhibitor with additional supplementation as shown. Subsequent media changes were performed daily with E6 alone. To test the effect of signal modulation on gastruloid formation, RUES2-GLR cells were pre-treated in Nutristem supplemented with 3.25 μM Chiron and one of 1 μM LDN193189 (04-0074), 1 μM XAV-939 (04-0046), or 10 μM SB431542 (1614) before aggregation in E6 with 0.5 μM Chiron and ROCK inhibitor, unless otherwise stated. Subsequent media changes were performed daily with E6 alone.
An alternative, ‘dorsalised’ protocol used 3 μM Chiron, supplemented with 10 μM SB431542 Nodal inhibitor (SB431542) also in Nutristem for 24 h.
After pre-treatment, hESCs at 60-85% confluency were washed twice with PBS−/−. For detachment, 2 ml 0.5 mM EDTA in PBS−/− was applied per well and cells were incubated at 37° C., 5% CO2 for 6.5 min. The plate was then carefully tapped against a solid object to promote detachment and the suspension was pipetted up and down repeatedly (5-10−) with a P1000 to break remaining clumps into single cells.
The suspension was then transferred into a 15 ml centrifuge tube with 8 ml PBS−/− and centrifuged for 3-5 min at 1000 rpm. The supernatant was removed, cells were washed with PBS−/− and spun down again 3-5 min at 1000 rpm. Subsequently, depending on the pellet size, cells were resuspended in 500 μl to 2 ml Essential 6 (E6) medium (Gibco, life technologies) and counted using an automated cell counter (MoxiZ, Orflo). Optimal cell density should be around 1×10^6/ml. The specific number of cells optimized per cell line (400/well for RUES2-TR, 500/well for mSHEF7 and H9TV lines) were then added to E6 supplemented with 5 μM Rock Inhibitor and 3 μM Chiron. Using a multichannel pipette, cells in this suspension were plated in 40 μl per well of an ultra-low adhesion, round bottom 96-well plate (Costar, Corning Inc.). At 24 h after aggregation, 150 μl E6 were added into each well using a multichannel pipette. E6 (see Chen et al., 2011) was continuously exchanged every subsequent day by removing 150 μl per well and adding the same amount.
Human gastruloids made using the RUES2-GLR reporter line were specifically analysed for dynamic reporter expression. An in-house MATLAB script was developed to assess the dynamic fluorescent marker expression along the AP axis of human gastruloids. Widefield images of gastruloids were taken at 24 h, 48 h and 72 h and aligned along their anteroposterior axis with reference to fluorescent reporter expression. For each sample, a binary image was generated in the brightfield channel and used as a mask for all fluorescent channels and the major (length) axis was identified. Consequently, for every pixel along the length axis, the sum of intensity values of the respective channel along the width of the aggregate was divided by the width of the gastruloid at that specific point, yielding the normalized fluorescence intensity along the length of the sample. This process was then repeated for every acquired fluorescent channel. Gastruloids used for this analysis were a full set from one experimental batch, and images were only excluded from the analysis when anteroposterior alignment or binarization were unsuccessful.
In order to quantify the degree of elongation of human gastruloids, brightfield channel widefield images were imported into Fiji (Schindelin et al., 2012). The length of the longest axis was measured using the line tool, followed by the length of the perpendicular axis at the mid-point of the longest axis line. […]

[2] = test system: hESCs (RUES2-GLR, MasterShef7); experiment: Effect of Chiron pre-treatment on adherent hESCs (RT-qPCR, immunostaining); assay type: cell-based, human
Description: We pre-treated hESCs for 1 day in pluripotency medium supplemented with 3-3.5 μM of the Wnt signalling agonist, CHIR99021 (hereafter referred to as Chiron) before aggregation; effectively shifting the Chiron pulse to before the aggregation rather than 48 h after aggregation as is the case in mouse gastruloids (Baillie-Johnson, P., et al., 2015).
as §1
Adherent cell staining was done using 1:200 Mouse anti-CDH2 (BD Biosciences, BD10920), 1:200 Rat anti-CDH1 (Takara, M108) and 1:200 Rabbit anti-BRACHYURY (AbCam, ab209665) primary antibodies. Quantification was performed using Fiji software on the whole image (histograms) or using a line ROI through the colony (line graph).
Gene expression was analysed from adherent cells using Trizol (Ambion LifeTechnologies) according to manufacturer's instructions. Total RNA was quantified using a NanoDrop 2000C (ThermoScientific) and 5 μg was added to a reverse transcription reaction with Superscript III (Invitrogen) according to manufacturer's instructions. Resultant cDNA was quantified by qPCR with SYBRGreen (Merck) using a liquid handling robot (Qiagility, Qiagen) and analysed on a RotorGeneQ thermocycler (Qiagen). Primer sequences can be found in Supplementary Table 1. Concentration of cDNA was estimated using an in-house MAK2 analysis method.

[3] = test system: HYS01030 human induced pluripotent stem cell (iPSC) line; experiment: Gastruloid formation from human induced pluripotent stem cells; assay type: cell-based; conditions: 3.5 uM Chiron 1 day before aggregation, aggregated in Chiron and ROCK inhibitor
Excerpt: FIG. 8: Human gastruloids made from induced pluripotent stem cells. […] 6 representative examples are show. […] There is also some sign of a rosette-like or lumenised structure that expresses SOX2 in the posterior tip (arrowhead). 3 representative examples are shown.
We used a wild type hESC line (mSHEF7; REF) as well as two transgenic lines, the H9TV BRACHYURY-Venus reporter (Mendjan et al., 2014) and RUES2-GLR, the triple reporter for germ layer markers with BRACHYURY-H2B-mCerulean, SOX17-H2B-tdTomato and SOX2-mCitrine (Simunovic et al., 2018). We also used a human induced pluripotent stem cell line, known as HYS01030 (unpublished).

[4] = test system: RUES2-GLR human gastruloids; experiment: Tomo-sequencing of Chiron vs Chiron+SB431542 pre-treated human gastruloids; assay type: cell-based
Description: An alternative, ‘dorsalised’ protocol used 3 μM Chiron, supplemented with 10 μM SB431542 Nodal inhibitor (SB431542) also in Nutristem for 24 h. Tomo-sequencing was performed and analysed in an updated version of published methods (Junker et al., 2014; and Kruse et al., 2016). In short, gastruloids were sectioned along their AP axis, and the mRNA-content of each section was extracted using SORT-seq (Muraro et al., 2016). Paired end (75 bp) sequencing was performed on the resulting RNA-seq libraries using the Illumina Next-Seq sequencing platform. Read 1 contains the cell or section barcode and the unique molecular identifier (UMI). Read 2 contains the biological information. Reads 2 with a valid cell/section barcode were selected and mapped using STAR-2.5.3a with default parameters to the human GRCh38 genome (ENSEMBL version 93), and only reads mapping to gene bodies (exons or introns) were used for downstream analysis. Reads mapping simultaneously to an exon and to an intron were assigned to the exon. Mappabilities for the different samples range between 44% and 47%. For each cell or section, the number of transcripts was obtained as previously described […]. We refer to transcripts as unique molecules based on UMI correction. […] In each gastruloid, data was then normalized to the median number of unique transcripts per slice, and the z-score of each gene was extracted along sections. The reproducibility of AP expression pattern between different gastruloid replicates was scored for each gene using a random background model to calculate the Pearson correlation coefficient p-value. The p-value threshold to select reproducible genes was set at 0.001. […] Differential gene expression was performed by normalizing the transcripts in each section to 100,000 for all gastruloids; then pooling all sections of each gastruloid together; and finally assessing significant differentially expressed genes based on total expression using the Binomial test. An alternative, ‘dorsalised’ protocol used 3.25 μM Chiron, supplemented with 10 μM SB431542 Nodal inhibitor (SB431542) also in Nutristem for 24 h. They were then aggregated in E6 with 3 μM Chiron and ROCK inhibitor.

[5] = 120 h Chi+SB43 vs 72 h Chiron pre-treated gastruloids
[6] = Chi+SB43 vs Chi pre-treated gastruloids
[7] = Chiron + SB431542 pre-treated vs Chiron pre-treated gastruloids
[8] = of genes reproducible in either or both conditions, Chi+SB43 vs Chi

Cc1c[nH]c(-c2cnc(NCCNc3ccc(C#N)cn3)nc2-c2ccc(Cl)cc2Cl)n1 [Chiron, CHIR99021]
elongation / BRA expression of gastruloids [1]: strictly dependent on the Chiron pre-treatment | aggregates displaying an elongated morphology ([1]; 72 h after aggregation, Chiron pre-treated RUES2-GLR, average of experiments): ~ 66% | expression of NANOG ([2]; 24 h Chiron pre-treatment vs Nutristem alone, RT-qPCR, RUES2-GLR): increased expression | expression and membrane localisation of CDH1 (E-cadherin) / CDH2 (N-cadherin) ([2]; 24 h Chiron pre-treatment vs Nutristem, immunostaining of adherent colonies): switch in the expression and membrane localisation of CDH1 (E-cadherin) towards CDH2 (N-cadherin; also recorded: increase in the expression of membrane localised CDH2 (N-cadherin) | expression of mesendodermal marker genes (BRA, MIXL1, LEFTY1, LEFTY2, AXIN2, EOMES, CDX1) ([2]; 1 day Chiron pre-treatment vs pluripotency medium alone, RT-qPCR): increased expression | expression of pluripotency markers (POU5F1, SOX2) ([2]; 1 day pre-treatment with 3-3.5 μM Chiron vs pluripotency medium (Nutristem) alone, RT-qPCR): levels equivalent to cells maintained in pluripotency medium alone; also recorded: levels comparable to cells maintained in pluripotency medium alone | levels of SOX2 ([2]; 1 day pre-treatment with 3-3.5 μM Chiron vs pluripotency medium alone, RT-qPCR): slightly reduced | morphology of iPSC-derived aggregates [3]: polarised in their morphology at 72 hours

NC(=O)c1ccc(-c2nc(-c3ccc4c(c3)OCO4)c(-c3ccccn3)[nH]2)cc1 [SB431542]
BRA expression pattern ([1]; Chiron + 10 μM SB431542 24 h pre-treatment): diffuse expression of BRA that approximated a gradient from anterior to posterior | SOX2 expression domain [1]: distinctly larger domains of SOX2 expression | SOX17 expression [1]: fewer, if any, SOX17 expressing cells | SOX2 expression domain ([1]; listed as SB43): larger, well-defined SOX2 domain at their posterior end | SOX17 expression ([1]; listed as SB43): absence of detectable SOX17 expression | elongation and polarisation of gene expression ([1]; Chiron + 10 μM SB431542 24 h pre-treatment, compared to original method): able to elongate and polarise their gene expression | genes reproducibly localised in both conditions [4, 5]: 301 genes | genes with loss of reproducible localisation [4, 5]: 509 genes | genes with novel spatial localisation acquired [4, 5]: 944 genes | expression of HOX genes (HOXC9, HOXA9, HOXC6) and SOX2 [4, 6]: up-regulation | expression of Nodal signalling components and targets [4, 6]: down-regulation | expression of cardiac development genes (TBX5, GATA6, LBX1, NKX2.5) [4, 6]: loss of many genes | expression of definitive endoderm genes (SHH, LHX1, CER1, FOXA3, SORCS2, FOXA2) [4, 6]: decrease in expression | domain-size and level of expression of SOX2 and SOX3 [4, 7]: increase in the domain-size and level of expression | expression of BRA, CYP26A1 and WNT3A in the posterior domain [4, 7]: comparable to the Chiron pre-treated human gastruloids | expression of FOXA2 [4, 7]: very little expression | expression of Node-like markers NODAL, NOTO, PITX2, DAND5 [4, 7]: no detectable expression | expression of asymmetry markers LEFTY1, LEFTY2 and anterior cardiac mesoderm markers GATA4, GATA6, HAND2 [4, 7]: little or no expression | localisation of somitogenesis-like genes (MEOX, TCF15) ([4]; Chiron + SB431542 pre-treated vs Chiron pre-treated gastruloids (central region)): become anteriorly localised | genes differentially expressed between the two treatments [4, 8]: 564 genes | proportion of genes differentially expressed between the two treatments [4, 8]: 33%

B1: Wnt3a: recombinant human Wnt3a (protein, UniProt P56704 19-352, looked up)
Protein Wnt-3a: SYPIWWSLAVGPQYSSLGSQPILCASIPGLVPKQLRFCRNYVEIMPSVAEGIKIGIQECQHQFRGRRWNCTTVHDSLAIFGPVLDKATRESAFVHAIASAGVAFAVTRSCAEGTAAICGCSSRHQGSPGKGWKWGGCSEDIEFGGMVSREFADARENRPDARSAMNRHNNEAGRQAIASHMHLKCKCHGLSGSCEVKTCWWSQPDFRAIGDFLKDKYDSASEMVVEKHRESRGWVETLRPRYTYFKVPTERDLVYYEASPNFCEPNPETGSFGTRDRTCNVSSHGIDGCDLLCCGRGHNARAERRREKCRCVFHWCCYVSCQECTRVYDVHTCK
elongation / BRA expression of gastruloids [1]: insufficient to promote elongation or BRA expression

B2: BMP4: BMP4 protein used for pre-treatment, 50 ng/ml (protein, UniProt P12644 293-408, looked up)
Bone morphogenetic protein 4: SPKHHSQRARKKNKNCRRHSLYVDFSDVGWNDWIVAPPGYQAFYCHGDCPFPLADHLNSTNHAIVQTLVNSVNSSIPKACCVPTELSAISMLYLDEYDKVVLKNYQEMVVEGCGCR
elongation / BRA expression of gastruloids [1]: insufficient to promote elongation or BRA expression
